Experimental data from patent publication US20260151398A1, “COMPOUNDS FOR REDUCING CHOLESTEROL AND TREATING LIVER AND KIDNEY DISEASE” (McMaster University, priority 2021, published 2026).
Entries after “also recorded” stand apart in the source; their conditions may differ.

Legend:
HepG2 cells = assay: DiI-LDL uptake assay in HepG2 cells; type: cell-based, human
Protocol: During the last 5 h of treatment (h 19 to 24) cells were exposed to DiI-LDL (10 μg/ml) and then washed with two changes of pre-warmed (37° C.) HBSS containing 20 mM HEPES prior to analysis.
The uptake and accumulation of DiI-LDL was then quantified using a fluorescent spectrophotometer (Molecular Devices). […] Live-cell staining of the LDLR was also performed in HepG2 cells exposed to DiI-LDL (FIG. 11 D).

AMPK = AMPK phosphorylation in livers of CF-treated mice; type: in vivo, mouse; settings: C57BL/6J mice, CF 100 mg/kg, 8 hours
Protocol: All animal studies were carried out in 8 h-fasted male wild-type, Pcsk9^−/− or Ampkβ1^−/− mice on the C57BL/6J background. CF (25-100 mg/kg-8 h) and CDN (50 mg/kg) treatments were administered via intraperitoneal injection unless specified otherwise. Primary mouse hepatocytes were isolated using a two-step process with EGTA ([…] in HEPES buffer, Sigma Aldrich) and collagenase (0.05% in HEPES buffer, Sigma Aldrich) in 12-week-old male mice on the C57BL/6J background. Cells were then washed, centrifuged, and plated following isolation in cell strainers. Hepatosure® 100-donor pooled primary human hepatocytes were purchased from Xenotech. Primary hepatocytes were regularly grown in William's E medium (Gibco, Thermo Fisher Scientific) containing 10% fetal bovine serum, 100 IU/ml penicillin, and 100 µg/ml streptomycin.
Previous studies have also shown that CF can promote the phosphorylation and activation of AMPK (Quan, H. Y., et al., 2013; Tsuda, S., et al., 2015), a liver-expressed kinase known to induce the inhibitory phosphorylation of SREBP1c (Li, Y., et al., 2011). […] Primary mouse hepatocytes were then isolated from wildtype (WT) and Ampkβ1−/− mice (Dzamko, N., et al., 2010).

[1] = test system: HMGR, SREBP1, hepatocyte nuclear factor 1α; assay: mRNA expression of HMGR, SREBP1 and hepatocyte nuclear factor 1α in hepatocytes; type: cell-based, mouse
Protocol: RNA purification/isolation was performed using RNeasy mini kits (Qiagen) and normalized to 2 μg RNA using a NanoDrop® spectrophotometer. Samples were then reverse transcribed into cDNA using Superscript Vilo cDNA Synthesis kit (Thermofisher Scientific). Real-time PCR was executed with Fast SYBR Green (Thermo Fisher Scientific) using the ΔΔct method on the ViiA7 real-time PCR platform (Thermofisher Scientific).
Therefore, the effect of CF on TG-; induced SREBP2 activation was examined. […] SREBP2 activity was then examined at the protein level in HuH7 cells transfected with a plasmid encoding GFP driven by the sterol regulatory element (SRE-GFP; FIG. 2E to G). […] GFP expression was also visualized via immunofluorescent staining and quantified using ImageJ Software.

PCSK9 [2] = assay: Plasma PCSK9 in healthy human subjects after oral CF; type: in vivo; settings: fasted healthy subjects, 400 mg orally (~5 mg/kg)
Protocol: (§1) Secreted PCSK9 levels were assessed directly in cell culture medium of cells grown in FBS-free medium for 24 h or in the serum isolated from either mice or human subjects. Mouse PCSK9 was measured using the Quantikinine® ELISA kit (#MCP900, R&D Systems) and human PCSK9 using the PCSK9 Quantikinine® ELISA kit (#DCP900, R&D Systems). Serum ApoB levels were also quantified using ELISAs (#DAPB00, R&D Systems). Serum samples were diluted as per manufacturer's instructions.
Healthy human subjects between the ages of 22 and 45 underwent fasting for 12 h prior to oral administration of 400 mg CF (˜5 mg/kg). Blood was collected prior to administration and at h 2 and 4 following administration.
Given that CF is among the most commonly consumed pharmacologically active compounds in the world (8), its ability to affect PCSK9 levels in fasted healthy volunteers was assessed. Serum was collected prior to, as well as 2- and 4-h post CF treatment (400 mg orally; ˜5 mg/kg). Consistent with the observations in cultured hepatocytes and in mice, CF reduced plasma PCSK9 levels in healthy subjects by 25% (n=12) and 21% (n=8) at the 2- and 4-h time points, respectively (FIG. 11 A and B).

PCSK9 [3] = assay: Secreted PCSK9 levels in HepG2 cells (ELISA); type: cell-based, human
Protocol: HuH7 and HepG2 cells were routinely grown in complete Dulbecco's Modified Eagle's Medium (Gibco, Thermofisher Scientific) supplemented with 10% fetal bovine serum (Sigma-Aldrich) and 100 U/ml of penicillin and streptomycin (Sigma-Aldrich). […] All cell treatments were carried out for 24 h unless otherwise stated. Cells were transfected with a cocktail consisting of plasmid DNA (1 μg), X-tremeGENE HP (3 μl; Thermofisher Scientific) and opti-MEM (100 μl; Thermofischer Scientific) per 1 ml complete medium containing plated cells. Human PCSK9 was overexpressed using the bicistronic pIRES-EGFP plasmid; calnexin using the mPA-GFP-N1 plasmid. To block the expression of GRP78 and CD36, siGENOME smartpool siRNA was purchased from GE Dharmacon (M-008198-02 and L-010206-00-0005 respectively) and transfected using lipofectamine RNAiMAX as per manufacturer's protocol.
as §1
CF, however, is a well-characterized compound having several health benefits with few known adverse effects. Achieving an optimal level of PCSK9 inhibition absent of the neuro-excitatory effect of CF, however, may be a challenge for the long-term clinical application of these findings. […] See Table 6 for the structure activity relationships of several other known xanthine-based compounds explored at varying doses in HepG2 cells for 24 h.

In the case of `Cn1c(=O)c2c(ncn2C)n(C)c1=O` [caffeine, 1,3,7-Trimethylxanthine], the “LDLc (DiI-LDL) uptake” value (HepG2 cells; HepG2, 24 h treatment, DiI-LDL 5 h) is reported as “increased LDLc uptake”, the “LDLc uptake in PCSK9 shRNA cells” value (HepG2 cells; HepG2 stably transfected with PCSK9 shRNA, CF 200 μM) is reported as “failed to significantly increase LDLc uptake” and the “phosphorylation of AMPK (pAMPK) and pACC in liver” value (AMPK) is reported as “induced the phosphorylation and activation of AMPK”. The SREBP1 expression ([1]; PMH) was “blocked the expression”, the “hepatocyte nuclear factor 1α expression” value ([1]; absence of TG) was “did not yield a significant difference” and the HMGR expression ([1]; mouse hepatocytes) was “blocked the expression”. For the same molecule, the “reduction of plasma PCSK9 levels at 2 h” value (PCSK9 [2]; 2 h) was 25%, the “reduction of plasma PCSK9 levels at 4 h” value (PCSK9 [2]; 4 h) was 21% and the “PCSK9 secretion from cells transfected with CMV-driven PCSK9 vector” value (PCSK9 [3]; HepG2, CF 1 mM, listed as CF) was “failed to block the secretion of PCSK9; also recorded: does not affect CMV-driven PCSK9 expression”. For the same molecule, the “PCSK9 secretion in Ca^2+-deficient medium” value (PCSK9 [3]; HepG2, Ca^2+-deficient medium 48 h) was “failed to antagonize PCSK9 secretion”.
